Results taken from US20240043474A1, “ANTI-INFLAMMATORY PEPTIDE FOR PREVENTING OR TREATING ATOPIC DERMATITIS” (AJOU UNIVERSITY INDUSTRY-ACADEMIC COOPERATION FOUNDATION, priority 2020, published 2024).
“Also recorded” adds a separate entry of the source. Square brackets hold non-standard residues; d marks the D form. Primed or numbered codes have the meaning given here. Ends that are not written are not given here. Peptide text beside a SMILES is read from it. * marks the point of attachment. PEG2′ = N-terminal cap of 2 polyethylene glycol units (PEG2); PEG4′ = N-terminal cap of 4 polyethylene glycol units (PEG4); 5FAM = O=C1OC2(c3ccc(O)cc3Oc3cc(O)ccc32)c2ccc(C(=O)*)cc21; Butanoyl(4-maleimido) = O=C1C=CC(=O)N1CCCC(=O)*; Stearoyl = CCCCCCCCCCCCCCCCCC(=O)*; Palmitoyl = CCCCCCCCCCCCCCCC(=O)*; Myristoyl = CCCCCCCCCCCCCC(=O)*; Hexanoyl = CCCCCC(=O)*

What was measured:
[1] = Skin tissue penetrability, confocal microscopy of skin after topical fluorescent peptide; format: in vivo, mouse; conditions: 1 μg applied to skin of ICR mice, with or without needle scratch, skin collected 2 hours later; FIG. 5
Excerpt: To determine the skin tissue penetration of the A900 peptide, peptide A900 peptide (A900-FAM) with fluorescent substance FAM (Carboxyfluorescein) attached to the N-terminus of A900 peptide was applied to the skin of ICR 4-week-old mice.

[2] = system: peritoneal macrophages; assay: Fluorescence-expressing peritoneal macrophages after intraperitoneal fluorescently labeled peptide, FACS; format: in vivo, mouse
[3] = system: lymph node cells; assay: Intracellular expression and frequency of peptide in cultured lymph node cells, confocal microscopy and FACS; format: cell-based, mouse; conditions: 1 μg/mL, FIG. 7
[4] = system: peritoneal macrophages; assay: Intracellular expression and frequency of peptide in cultured peritoneal macrophages, confocal microscopy and FACS; format: cell-based, mouse; conditions: 1 μg/mL, FIG. 8
Experimental: Peritoneal macrophages were isolated from the same mouse used in FIG. 7 to culture the cell suspension. Anti-CD3 (1 μg/ml) antibodies were plated on a petri dish at room temperature for 3 hours and cells were inoculated (5×10^5 cells/well). After 1 hour, anti-CD28 antibodies (1 μg/ml), IL-23 (20 ng/ml), IL-6 (20 ng/ml), and TGF-β (5 ng/ml) were added.

[5] = system: IL-4, IL-31, IL-17; assay: Cytokine expression in spleen by real-time PCR after treating atopic skin lesions with external preparation; format: in vivo, mouse; conditions: external preparation on skin lesions, FIG. 9
[6] = system: atopic dermatitis induced with dinitrochlorobenzene (DNCB); assay: DNCB-induced atopic dermatitis mouse model, peptide applied as external preparation; format: in vivo; conditions: FIG. 1
Experimental: Experimental mice were bred in a 12-hour light/dark cycle, free of pathogens at a constant temperature of 23° C. and 55% humidity. After an adaptation period of several days, DNCB-induced atopic dermatitis was induced in mice by the following method.
First, the hair in the dorsal skin area was carefully shaved using a hair removal cream, and then 100 μL of 1% dinitrochlorobenzene (DNCB) dissolved in acetone was locally treated to exposed skin once a day for 3 days to sensitize the skin and induce atopic dermatitis.
A positive control group obtained by treating mice having atopic dermatitis with anti-inflammatory moisturizing cream (Control Cream) and Dupixent injection which is a therapeutic agent for atopic dermatitis was compared with a peptide (A900 peptide) treated group.

[7] = system: IL-4R alpha, CCR3 and CTLA-4 positive cells; assay: FACS of splenocytes from atopic dermatitis mice after external preparation for five days; format: in vivo, mouse; conditions: FIG. 2
Experimental: In order to identify whether the peptide that has the effect of alleviating atopic dermatitis inflammation has an immunoregulatory function, splenocytes and peripheral blood leukocytes (PBLs) were separately isolated after administrating the external preparation into the mouse skin for five days, surface staining was performed with antibodies for FACS, and then the frequency of cells expressing interleukin 4 receptor (IL-4R) alpha, C—C chemokine receptor type 3 (CCR3), and cytotoxic T-lymphocyte-associated protein 4 (CTLA-4) was analyzed via flow cytometry. Dupixent was administered in a form of a peritoneal injection and tested as a control group.

[8] = system: CD11b+Ly6G+, CD83+ and Foxp3+ positive cells; assay: FACS of peripheral blood leukocytes (PBLs) from atopic dermatitis mice after peptide administration; format: in vivo, mouse; conditions: FIG. 3
[9] = system: IL-4; assay: IL-4 expression in splenocytes of treated atopic dermatitis mice by real-time PCR; format: in vivo, mouse; conditions: FIG. 4
[10] = system: IL-13, IL-4, TNF alpha, IL-17; assay: Cytokines in mice having atopic dermatitis after peptide A900 treatment (summary statement); format: in vivo, mouse
[11] = system: CD4 T cells secreting atopy associated cytokines; assay: Ex vivo FACS of PBMCs from atopic mice cultured with peptides; format: cell-based, mouse; conditions: 3 μg/ml, 24 hours, compared to untreated control group (ADC), FIG. 10
Experimental: After removing hair from 6-week-old Balb/c male mice, application was performed with 1% DNCB 1 time/day for 2 days and 0.5% DNCB 1 time/day for 3 days for a total of 5 days to induce atopic symptoms. PBMCs were isolated from atopic mice, seeded in 24 well plates, treated with peptides, cultured for 24 hours, and then analyzed by FACS. PBMCs isolated from normal mice and atopy-induced mice were used as control groups, and peptides were treated to PBMC cultures isolated from atopic mice. Dupixent was used for the peptide control group (Dupixent 5 μg/ml). A900, A900P, A900H, A900S, A900M, A900MAL, A900PEG2, and A900PEG4 were used as the peptides, and the concentration was set to 3 μg/ml. Surface was stained with anti-CD4 antibodies, cytokines were subjected to intracellular staining, and the frequency of double stained population was measured.

[12] = system: IL-4, IL-13, IL-21; assay: Real-time PCR of cytokines in splenocytes and lymph node cells from atopic mice cultured with peptides; format: cell-based, mouse; conditions: 24 hours, compared to untreated control (ADC), FIGS. 11 and 12
[13] = system: cells secreting atopy associated cytokines; assay: In vivo FACS of intracellular cytokines in PBLs after external preparation for 5 days in atopic mice; set-up: species or system mouse; conditions: external preparation 1 μg/ml for 5 days, compared to ADC mice given PBS, FIG. 13
Experimental: (§1) After removing hair from 6-week-old Balb/c male mice, application was performed with 1% DNCB 1 time/day for 2 days and 0.5% DNCB 1 time/day for 3 days for a total of 5 days, to induce atopic symptoms (N=5-8 mice for each group). After administering the external preparation to mouse skin for 5 days in mice having atopic symptoms, peripheral blood leukocytes (PBLs) were isolated and the frequency of each cytokine expressing cell was analyzed and compared after intracellular staining with antibodies for FACS. The control group was given with an anti-inflammatory moisturizing cream external preparation (5 times) and administered with an anti-mouse IL-4 receptor antibody (100 ug/mouse) intraperitoneal injection (1 time). A900, A900M, A900MAL, and A900PEG4 were used for peptides, and the concentration was set to 1 μg/ml. Cytokines were subjected to intracellular staining to measure the frequency of stained cell population.

[14] = system: CD4 cells secreting IL-13 and IL-31; assay: In vivo FACS of cytokine-expressing CD4 cells in PBLs after external preparation in atopic mice; set-up: species or system mouse; conditions: external preparation 1 μg/ml for 5 days, FIG. 14
Experimental: as §1
Peripheral blood leukocytes (PBLs) isolated from the same mice as in FIG. 13 were isolated and subjected to CD4 surface staining and intracellular staining with antibodies for FACS to analyze and compare the frequency of each cytokine-expressing CD4 cell.

[15] = external preparation for five days
[16] = PBLs of mice having atopic dermatitis

## CC[C@H](C)[C@H](NC(=O)[C@H](CCC(=O)O)NC(=O)CNC(=O)[C@H](CS)NC(=O)[C@H](CCCNC(=N)N)NC(=O)[C@H](CC(C)C)NC(=O)[C@@H](NC(=O)[C@@H](NC(=O)[C@@H](NC(=O)[C@H](CS)NC(=O)CNC(=O)c1ccc2c(c1)C(=O)OC21c2ccc(O)cc2Oc2cc(O)ccc21)C(C)C)[C@@H](C)O)C(C)C)C(=O)N[C@H](C(=O)O)C(C)C [A900-FAM] (5FAM-GCVTVLRCGEIV-OH)
[1]
  skin tissue penetration (fluorescence in skin tissue): fluorescence was detected in both the epidermis and dermis
[2]; 3 μg into abdominal cavity, after 3 hours, FIG. 6
  fluorescence-expressing cells: barely detected
[2]; 3 μg into abdominal cavity, at 30 minutes, FIG. 6
  peritoneal macrophages expressing fluorescence: 50%
[2]; 3 μg into abdominal cavity, at 1 hour, FIG. 6
  peritoneal macrophages expressing fluorescence: 23%
[2]; 3 μg intraperitoneally, cells in the abdominal cavity
  time the peptide is maintained in the cell: more than 1 hour
[3]; 1-hour treated group
  cell frequency expressing peptide: 20%
[3]; 24-hour treated group
  cell frequency expressing peptide: 40%
[4]; 1-hour culture group
  cell frequency expressing peptide: 10%
[4]; 24-hour culture group
  cell frequency expressing peptide: 15%

## GCESEILCGEIV [A907]
[5]
  expression of IL-4: inhibited
  expression of IL-17: inhibited
  expression of IL-31: inhibited

## GCETELRCGEIV [A903]
[5]
  expression of IL-4: inhibited
  expression of IL-17: inhibited
  expression of IL-31: inhibited

## GCETVLRCGEIV [A901]
[5]
  expression of IL-4: inhibited
  expression of IL-17: inhibited
  expression of IL-31: inhibited

## GCLRCGEIV [A914]
[5]
  expression of IL-4: inhibited
  expression of IL-17: inhibited
  expression of IL-31: inhibited

## GCVTELRCGEIV [A902]
[5]
  expression of IL-4: inhibited
  expression of IL-17: inhibited
  expression of IL-31: inhibited

## GCVTVCGEIV [A911]
[5]
  expression of IL-4: inhibited
  expression of IL-17: inhibited
  expression of IL-31: inhibited

## GCVTVLRCGEIV [A900]
[6]; external preparation applied to mice with DNCB-induced atopic dermatitis
  atopic dermatitis symptoms: alleviated
[6]; versus Control Cream / Dupixent injection positive control
  speed of appearance of the effect compared with control group: faster than the control group
[7]; control Dupixent peritoneal injection
  degree of inhibition of IL-4R alpha, CCR3 and CTLA-4 positive cells compared with control administered group: more effective than that of the control administered group
[7]; [15]
  frequency of CCR3 positive cells: tended to be inhibitive; also recorded: decreased
  frequency of CTLA-4 positive cells: tended to be inhibitive; also recorded: decreased
  frequency of IL-4R alpha positive cells: tended to be inhibitive; also recorded: decreased
[8]; [16]
  frequency of CD11b+Ly6G+ positive cells: inhibited
  frequency of CD83+ positive cells: inhibited
  frequency of Foxp3+ positive cells: increased
[8]; PBLs
  degree of inhibition of CD11b+Ly6G+ and CD83+ positive cells compared with control administered group: more effective than in the control administered group
[9]
  IL-4 expression: inhibited
[10]
  cytokines such as IL-13, IL-4, TNF alpha, and IL-17: reduced
[5]
  expression of IL-4: inhibited
  expression of IL-17: inhibited
  expression of IL-31: inhibited
[11]
  frequency of CD4 T cells secreting atopy associated cytokines: inhibited
[12]
  IL-4 expression: inhibited
  IL-13 expression: inhibited
  IL-21 expression: inhibited
[13]
  frequency of cells secreting atopy associated cytokines: inhibited

## Hexanoyl-GCVTVLRCGEIV (cysteine pairing not given here) [A900H]
[12]
  IL-4 expression: inhibited
  IL-13 expression: inhibited
  IL-21 expression: inhibited

## Maleimidobutyrol-GCVTVLRCGEIV ({Butanoyl(4-maleimido)}-GCVTVLRCGEIV; cysteine pairing not given here) [A900MAL]
[11]
  frequency of CD4 T cells secreting atopy associated cytokines: inhibited
[12]
  IL-4 expression: inhibited
  IL-13 expression: inhibited
  IL-21 expression: inhibited
[13]
  frequency of cells secreting atopy associated cytokines: inhibited
[14]
  frequency of CD4 cells secreting IL-13: inhibited
  frequency of CD4 cells secreting IL-31: inhibited

## Myristoyl-GCVTVLRCGEIV (cysteine pairing not given here) [A900M]
[11]
  frequency of CD4 T cells secreting atopy associated cytokines: inhibited
[12]
  IL-4 expression: inhibited
  IL-13 expression: inhibited
  IL-21 expression: inhibited
[13]
  frequency of cells secreting atopy associated cytokines: inhibited

## PEG2-GCVTVLRCGEIV ([PEG2′]GCVTVLRCGEIV; cysteine pairing not given here) [A900PEG2]
[12]
  IL-4 expression: inhibited
  IL-13 expression: inhibited
  IL-21 expression: inhibited

## PEG4-GCVTVLRCGEIV ([PEG4′]GCVTVLRCGEIV; cysteine pairing not given here) [A900PEG4]
[11]
  frequency of CD4 T cells secreting atopy associated cytokines: inhibited
[12]
  IL-4 expression: inhibited
  IL-13 expression: inhibited
  IL-21 expression: inhibited
[13]
  frequency of cells secreting atopy associated cytokines: inhibited

## Palmitoyl-GCVTVLRCGEIV (cysteine pairing not given here) [A900P]
[11]
  frequency of CD4 T cells secreting atopy associated cytokines: inhibited
[12]
  IL-4 expression: inhibited
  IL-13 expression: inhibited
  IL-21 expression: inhibited

## Stearoyl-GCVTVLRCGEIV (cysteine pairing not given here) [A900S]
[11]
  frequency of CD4 T cells secreting atopy associated cytokines: inhibited
